According to patent US20130252983A1, “ACTIVATING PHOSPHORYLATION SITE ON GLUTAMINASE C” (CORNELL UNIVERSITY, priority 2010, published 2013):

How the values were obtained:
[1] = tested on: NIH 3T3 cells stably expressing Cdc42(F28L), Rac(F28L), RhoC(F30L); experiment: Growth to high density or in low serum of cells expressing activated Rho GTPase mutants; format: cell-based, mouse; conditions: 10 μM
Description: (§1) FIGS. 2A-G illustrate effects of 968 on the transforming activity of constitutively active Rho GTPases and human breast cancer cells. […] Cells were scored after 14 days and plotted as the percentage of the total number of colonies greater than 50 μm in diameter. Data represent the average of 3 experiments (±s.d.). […] Data represent the average of 3 experiments (±s.d.). […] Data represent the average of 3 experiments (±s.d.). […] After 24 hours at 37° C., the migratory cells were fixed, stained with GIEMSA, and counted. Data represent the average of 3 experiments (±s.d.). […] Data represent the average of 3 experiments (±s.d.). […] Data represent the average of 3 experiments (±s.d.). […] Data represent the average of 3 experiments (±s.d.).

[2] = tested on: MDA-MB231 cells; experiment: Soft-agar colony formation, MDA-MB231; format: cell-based, human; conditions: 10 μM
Description: as §1

[3] = target: T1, GA activity of NIH 3T3 cells stably expressing Dbl or Cdc42(F28L) (Mus musculus, UniProt D3Z7P3); experiment: GA activity in mitochondrial fractions of treated transformed NIH 3T3 cells; format: cell-based; conditions: 10 μM, 48 hours
T1 construct: endogenous in cells; host or cells: NIH 3T3 cells stably expressing Dbl or Cdc42(F28L); mitochondrial fraction
T1 sequence (D3Z7P3 55-603 isoform D3Z7P3-2): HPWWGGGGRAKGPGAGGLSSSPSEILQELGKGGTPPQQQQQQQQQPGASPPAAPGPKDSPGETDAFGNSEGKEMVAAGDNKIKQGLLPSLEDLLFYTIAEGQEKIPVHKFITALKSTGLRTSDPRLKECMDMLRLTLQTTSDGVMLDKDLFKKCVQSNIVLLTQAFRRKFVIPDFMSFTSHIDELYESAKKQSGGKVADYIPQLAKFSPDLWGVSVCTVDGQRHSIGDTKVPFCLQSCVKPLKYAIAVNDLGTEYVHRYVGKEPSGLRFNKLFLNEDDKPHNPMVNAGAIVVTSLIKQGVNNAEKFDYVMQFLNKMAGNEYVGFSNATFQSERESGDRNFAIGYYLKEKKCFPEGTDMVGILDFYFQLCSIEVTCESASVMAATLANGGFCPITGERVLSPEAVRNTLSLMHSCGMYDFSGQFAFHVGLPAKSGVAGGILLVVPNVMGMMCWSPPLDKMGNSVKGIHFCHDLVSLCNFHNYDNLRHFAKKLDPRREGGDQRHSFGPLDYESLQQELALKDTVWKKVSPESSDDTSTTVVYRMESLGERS
Description: 100%=620 moles of glutamine hydrolyzed per minute per mole of enzyme. Data represent the average of 3 experiments (±s.d.). […] Following precipitation of the beads and re-suspension, the samples were analyzed by Western blotting with anti-V5 antibody. […] Data represent the average of 3 experiments (±s.d.). […] Data represent the average of 3 experiments (±s.d.). […] Data represent the average of 3 experiments (±s.d.). FIG. 3E NIH 3T3 cells transiently expressing Dbl were assayed for focus formation in the presence of 10 μM 968 alone or together with 7 mM dimethyl α-ketoglutarate. […] 100%=680 nM glutamine hydrolyzed per minute per 10^5 cells. Data are the average of 3 experiments (±s.d.). […] 100%=750 nM glutamine hydrolyzed per minute per 10^5 cells. Data represent the average of 3 experiments (±s.d.).
FIGS. 4A-E illustrate the role of glutaminase C activity in cellular transformation. […] Data represent the average of 3 experiments (±s.d.). […] Data represent the average of 3 experiments (±s.d.). […] 100% represents the activity measured in untreated Dbl-transformed cells. The data represent the average of 2 experiments. […] 100% represents the activity measured in untreated SKBR3 cells. The data represent the average of 2 experiments. […] Data represent the average of 3 experiments (±s.d.).
FIGS. 11A-E illustrate the effects of different treatments on GA activity. […] The addition of Pi stimulated the GA activity in control 3T3 cells, Dbl-expressing cells, and Cdc42(F28L)-expressing cells by ˜6-fold, 2-fold, and 3-fold, respectively. 100% represents the Pi-stimulated activity measured for Dbl-transformed cells that were not treated with 968. Data is the average of 3 experiments (±s.d.). […] The addition of Pi stimulated the GA activity of HMECs, MDA-MB231 cells, and SKBR3 cells by ˜5-fold, 2-fold, and 1.4-fold, respectively. 100% represents the Pi-stimulated activity for SKBR3 cells that were not treated with 968. Data are the average of 3 experiments (±s.d.). […] Mitochondrial fractions were prepared from equal numbers of cells and assayed for GA activity in the presence or absence of 133 mM Pi. The data are plotted as the percentage of GA activity measured for untreated SKBR3 cells and represent the average of 2 experiments. […] 100% represents the Pi-stimulated activity measured for untreated Dbl-transformed cells. The data represent the average of 2 experiments. […] 100% represents the Pi-stimulated activity for untreated SKBR3 cells. The data represent the average of 2 experiments.
Dbl expressing NIH 3T3 cells were treated for 48 hours in the presence or absence of 968 (10 μM), Bay 11-7082 (2 μM) or Rapamycin (100 nM). Mitochondria were then isolated from the treated cells and assayed for glutaminase activity in the absence or presence of phosphate.
Mitochondrial preparations were obtained using the mitochondria isolation kit from QIAGEN (Cat #37612). A suspension containing 2×10^7 cells was transferred into a 50 ml conical tube and centrifuged at 500×g for 10 minutes at 4° C. The pellets were resuspended in 2 ml of ice-cold lysis buffer (supplied by QIAGEN) and incubated for 10 minutes at 4° C. using an end-over-end shaker. The lysates were centrifuged at 1000×g for 10 minutes at 4° C., and the pellets were resuspended in a buffer supplied by the manufacturer and disrupted completely by using a blunt-ended, 23-gauge needle and a syringe, followed by centrifugation at 6000×g for 20 minutes at 4° C. […]

**Q.** `CN(C)c1ccc(C2Nc3ccc4ccccc4c3C3=C2C(=O)CC(C)(C)C3)cc1Br` (centres unmarked) [Compound 968, 5-[3-bromo-4-(dimethylamino)phenyl]-2,2-dimethyl-2,3,5,6-tetrahydrobenzo[a]] was tested. Which “growth under low serum conditions” value ([1]; 1% calf serum) did it give?
**A.** blocking their ability

**Q.** And the “growth to high density” value ([1]; 10% calf serum, 6 days)?
**A.** blocking their ability

**Q.** What about the “colony formation in soft agar” value [2] of the same compound?
**A.** inhibits the ability

**Q.** What about the “GA activity of transformed cells” value [3] of the same compound?
**A.** inhibits their GA activity

**Q.** And the “sensitivity of basal versus phosphate-stimulated GA activity” value ([3]; with or without 133 mM Pi)?
**A.** basal activity being more sensitive than the phosphate-stimulated activity
